{
  "source": "patent US20250049787A1",
  "about": "“TREATMENT FOR ACUTE MYELOID LEUKEMIA OR LYMPHOMA” (UNIVERSITY HEALTH NETWORK, priority 2021, published 2025)",
  "system": "MV-4-11 xenografts",
  "test": "MV-4-11 xenograft model of human AML in CD-1 Nude mice",
  "format": "in vivo",
  "settings": "0.5 mg/kg IP, QW×4 vs vehicle; p=0.137",
  "protocol": "Female 8- to 10-week-old CD-1 Nude mice (Charles River Laboratories) with established MV-4-11 xenografts were treated for 21 days (n=8). MV-4-11 cells is a human AML cell line which endogenously expresses a Fms Related Receptor Tyrosine Kinase 3 (FLT3) internal tandem duplication (ITD) mutation. Animal weights were monitored daily, and tumor volume was measured three times per week. Tumor volume (mm^3) was defined as follows, length×width^2/2. Percentage tumor growth inhibition (% TGI) was defined as follows, 100×[1−(TVf,treated−TVi,treated)/(TVf,control−TVi,control)], where TVf is the average tumor volume at the end of study, and TVi is the average tumor volume at the initiation of treatment. In cases where tumor regression occurred, percentage tumor regression was defined as follows, 100×[1−(TVf,treated/TVi,treated)]. At the completion of the study, the mice were sacrificed by an anesthetic overdose. The Institutional Animal Care and Use Committee of the University Health Network approved all animal procedures. […] Data are represented as mean±SEM. p values were calculated using Student's/test.",
  "data": [
    {"smiles": "CC[C@]1(O)C[C@H]2CN(CCc3c([nH]c4ccccc34)[C@@](C(=O)OC)(c3cc4c(cc3OC)N(C=O)[C@H]3[C@@](O)(C(=O)OC)[C@H](OC(C)=O)[C@]5(CC)C=CCN6CC[C@]43[C@@H]65)C2)C1", "note": "[Vincristine, reference compound]", "values": [
      {"measurement": "Day 10 TGI (tumor growth inhibition)", "result": 62, "unit": "%"}
    ]}
  ]
}
